As a reminder, the melting point is the temperature of the solid-liquid transition.

In turn, `O=C(/N=c1\ccccn1CC1CC1)C(F)(F)F` registered a melting point of 90 to 91 °C.
Molecule `O=C(/N=c1\ccccn1CC1CC1)c1cc(Cl)ccc1Cl` had a melting point of 53.5 to 54.5 °C.
For `Cc1s/c(=N\C(=O)C(F)(F)C(F)(F)C(F)(F)F)n(CC2CC2)c1C` the value was 92 to 94 °C.
`CCc1s/c(=N\C(=O)c2cccc(C(F)(F)F)c2F)n(CC)c1C` returned a melting point of 115 to 117 °C.
In turn, `O=C(/N=c1\ccccn1CC1CC1)c1cccc(F)c1C(F)(F)F` registered a melting point of 88 to 89 °C.
For `Cc1c(C(C)C)s/c(=N\C(=O)c2cccc(C(F)(F)F)c2F)n1C` the value was 89 to 91 °C.
Regarding `Cc1c(C(C)C)s/c(=N\C(=O)c2cccc(C(F)(F)F)c2)n1CC1CC1`, the melting point lay within 89 to 91 °C.
Under `Cc1ccccc1C(=O)/N=c1\sc(C(C)(C)C)c(C)n1C` stands 173 to 175 °C.
On to `Cc1c(C(C)(C)C)s/c(=N\C(=O)c2cccc(Br)c2)n1C`, for which the melting point was 173 to 175 °C.
Molecule `Cc1c(C(C)(C)C)s/c(=N\C(=O)c2cccc(N(C)C)c2)n1C` registered a melting point of 189 to 190 °C.
As to `Cc1c(C(C)(C)C)s/c(=N\C(=O)c2cccc(C#N)c2)n1C`, the melting point lay within 131 to 133 °C.
For `COC(=O)c1cccc(C(=O)/N=c2\sc(C(C)(C)C)c(C)n2C)c1` the value was 192 to 193 °C; for `Cc1c(C(C)(C)C)s/c(=N\C(=O)c2cccc(C(=O)O)c2)n1C`, 250 to 252 °C.
For `COc1ccc(C(=O)/N=c2\sc(C(C)(C)C)c(C)n2C)c(OC)c1` the value was 138 to 140 °C; for `Cc1c(C(C)(C)C)s/c(=N\C(=O)c2cccnc2)n1C.Cl`, 202 to 203 °C.
Under `O=C(/N=c1\ccccn1CCc1ccccc1)c1cccc(C(F)(F)F)c1F` stands 117 to 118 °C.
The molecule `O=C(/N=c1\ccccn1CC1CC1)c1cc(F)ccc1C(F)(F)F` registered a melting point of 88.5 to 89 °C.
For `CCn1c(C)c(C(C)(C)C)s/c1=N\C(=O)C(F)(F)C(F)(F)C(F)(F)F` the value was 113 to 115 °C.
For `CCCn1c(C)c(C(C)(C)C)s/c1=N\C(=O)c1cccc(C(F)(F)F)c1` the value was 172 to 174 °C; for `Cc1c(C(C)(C)C)s/c(=N\C(=O)c2ccccc2)n1CC1CC1`, 106 to 107 °C; for `O=C(/N=c1\ccccn1CC1CC1)c1cc(C(F)(F)F)ccc1F`, 127 to 127.5 °C.
`Cc1c(C(C)(C)C)s/c(=N\C(=O)c2ccccc2O)n1CC1CC1` yielded a melting point of 178 to 180 °C.
Under `CCN(CC)c1cccc(C(=O)/N=c2\sc(C(C)(C)C)c(C)n2CC2CC2)c1` stands 89 to 90 °C; under `CCN(CC)c1ccc(C(=O)/N=c2\sc(C(C)(C)C)c(C)n2CC2CC2)cc1`, 134 to 136 °C.
With `Cc1c(C(C)(C)C)s/c(=N\C(=O)c2cccc(N3CCOCC3)c2)n1CC1CC1`, the melting point lay within 114 to 115 °C.
Under `Cc1c(C(C)(C)C)s/c(=N\C(=O)c2ccc(F)c(C(F)(F)F)c2)n1CC1CC1` stands 123 to 124 °C; under `Cc1c(C(C)(C)C)s/c(=N\C(=O)c2cc(F)cc(C(F)(F)F)c2)n1CC1CC1`, 100 to 102 °C.
`Cc1c(C(C)(C)C)s/c(=N\C(=O)c2ccc(Cl)c(C(F)(F)F)c2)n1CC1CC1`: the melting point fell in the range of 122 to 124 °C.
For `Cc1c(C(C)(C)C)s/c(=N\C(=O)c2cc(C(F)(F)F)ccc2N2CCOCC2)n1CC1CC1` the value was 86 to 87 °C.
Under `Cc1c(C(C)(C)C)s/c(=N\C(=O)c2ccc(F)c(C#N)c2)n1CC1CC1` stands 195 to 197 °C; under `Cc1ccc(C(=O)/N=c2\sc(C(C)(C)C)c(C)n2CC2CC2)cn1`, 228 to 230 °C.
Take `Cc1c(C(C)(C)C)s/c(=N\C(=O)c2cncc(Br)c2)n1CC1CC1`: the melting point was in the range of 152 to 154 °C.
Take `O=C(/N=c1\ccc(C(F)(F)F)cn1CC1CC1)c1cc(C(F)(F)F)ccc1F`: the melting point lay in the range of 109 to 110 °C.
The molecule `Cc1c(C(C)(C)C)s/c(=N\C(=O)c2cccnc2OC(C)C)n1CC1CC1` had a melting point of 151 to 153 °C.
In turn, `Cc1c(C(C)(C)C)s/c(=N\C(=O)c2cccnc2OC2C=CC=CC2)n1CC1CC1` (stereo not drawn) came in with a melting point of 111 to 114 °C.
For `COc1cc(C(=O)/N=c2\sc(C(C)(C)C)c(C)n2CC2CC2)c(OC)nn1` the value was 124 to 126 °C; for `Cc1c(C(C)(C)C)s/c(=N\C(=O)c2cccnc2N2CCCC2)n1CC1CC1`, 97 to 98 °C; for `CCCc1c(C(=O)/N=c2\sc(C(C)(C)C)c(C)n2CC2CC2)cnn1-c1ccccc1`, 104 to 105 °C.
In turn, `Cc1c(C(C)(C)C)s/c(=N\C(=O)C2CCC2)n1CC1CC1` yielded a melting point of 189 to 191 °C.
`Cc1c(C(C)(C)C)s/c(=N\C(=O)Cc2ccccc2)n1CC1CC1` registered a melting point of 92 to 94 °C.
As for `Cc1c(C(C)(C)C)s/c(=N\C(=O)Cc2cccs2)n1CC1CC1`, the melting point was 157 to 159 °C.
For `CCOC(=O)c1s/c(=N\C(=O)c2cccc(C(F)(F)F)c2)n(CC2CC2)c1C` the value was 115 to 116 °C.
For `Cc1c(C(=O)NC(C)C)s/c(=N\C(=O)c2cccc(C(F)(F)F)c2)n1CC1CC1` the value was 212 to 214 °C; for `Cc1c(C(=O)N2CCCC2)s/c(=N\C(=O)c2cccc(C(F)(F)F)c2)n1CC1CC1`, 125 to 127 °C; for `CC(C)c1s/c(=N\C(=O)c2cncc(Br)c2)n(CC2CC2)c1C(F)(F)F`, 139 to 141 °C.
Under `CCn1c(C)c(Cl)s/c1=N\C(=O)c1cccc(C(F)(F)F)c1F` stands 158 to 160 °C.
`C=CCn1c(-c2ccccc2)c(-c2ccccc2)s/c1=N\C(=O)c1ccccc1`: the melting point was in the range of 141 to 143 °C.
Under `Cc1ccccc1C(=O)/N=c1\sc2ccccc2n1CC1CC1` stands 115 to 117 °C; under `CN(C)c1cccc(C(=O)/N=c2\sc3ccccc3n2CC2CC2)c1`, 156 to 158 °C.
Take `Cc1ncccc1C(=O)/N=c1\sc2ccccc2n1CC1CC1`: the melting point lay in the range of 181 to 183 °C.
Regarding `Cc1cc2s/c(=N\C(=O)c3ccccc3C)n(CC3CC3)c2cc1C`, the melting point is 160 to 161 °C.
Regarding `Cc1ccccc1C(=O)/N=c1\sc2cc(F)ccc2n1CC1CC1`, the melting point was in the range of 143 to 145 °C.
For `Cc1ccccc1C(=O)/N=c1/sc2cccc(C)c2n1CC1CC1` the value was 133 to 134 °C; for `Cc1ccccc1C(=O)/N=c1/sc2cc(F)cc(F)c2n1CC1CC1`, 146 to 148 °C; for `COCCn1/c(=N/C(=O)c2cccc(C(F)(F)F)c2F)cc(C)n1C`, 144 to 145 °C.
For `COCCCn1/c(=N/C(=O)c2cccc(C(F)(F)F)c2F)cc(C)n1C` the value was 88 to 90 °C; for `Cn1c(C(C)(C)C)c/c(=N\C(=O)C(F)(F)F)n1CC1CC1`, 122 to 124 °C; for `Cn1c(C(C)(C)C)c/c(=N\C(=O)c2cccc(OC(F)(F)C(F)F)c2)n1CC1CC1`, 110 to 111 °C.
`Cn1c(C(C)(C)C)c/c(=N\C(=O)c2cccc(Cl)c2Cl)n1CC1CC1` displayed a melting point of 158 to 159 °C.
In turn, `Cc1cccc(C(=O)/N=c2\cc(C(C)(C)C)n(C)n2CC2CC2)c1I` yielded a melting point of 147 to 148 °C.
Under `Cc1c(Br)cccc1C(=O)/N=c1\cc(C(C)(C)C)n(C)n1CC1CC1` stands 138 to 139 °C; under `Cc1c(I)cccc1C(=O)/N=c1\cc(C(C)(C)C)n(C)n1CC1CC1`, 138 to 140 °C; under `Cc1ccc(C(=O)/N=c2\cc(C(C)(C)C)n(C)n2CC2CC2)c(Br)c1`, 153 to 154 °C.
For `COc1cc(Cl)ccc1C(=O)/N=c1\cc(C(C)(C)C)n(C)n1CC1CC1` the value was 128 to 129 °C; for `COc1ccc(C(F)(F)F)cc1C(=O)/N=c1\cc(C(C)(C)C)n(C)n1CC1CC1`, 99 to 101 °C.
The molecule `Cc1ccc(F)cc1C(=O)/N=c1\cc(C(C)(C)C)n(C)n1CC1CC1` yielded a melting point of 161 to 162 °C.
Under `Cc1ccc(C(=O)/N=c2\cc(C(C)(C)C)n(C)n2CC2CC2)cc1Cl` stands 135 to 136 °C; under `Cc1c(C(C)(C)C)n(C)n(CC2CC2)/c1=N/C(=O)c1cccc(C(F)(F)F)c1F`, 149 to 150 °C; under `Cn1c(C2CC2)c/c(=N\C(=O)c2cccc(C(F)(F)F)c2F)n1-c1ccccc1`, 168.5 to 169.5 °C.
Under `Cn1c(C(F)(F)F)c(-c2ccccc2)/c(=N\C(=O)c2cccc(C(F)(F)F)c2F)n1C` stands 169.5 to 170 °C; under `Cn1cccc/c1=N\C(=O)c1cccc(C(F)(F)F)c1F`, 146 to 147 °C; under `Cn1c(C(C)(C)C)c/c(=N\C(=S)Nc2ccc(F)cc2)n1CC1CC1`, 147.5 to 149.5 °C.
As for `Cc1ccc(C(F)(F)F)cc1C(=O)/N=c1\sc(C(C)(C)C)nn1CC1CC1`, the melting point lay in the range of 63 to 65 °C.
For `CC(C)(C)c1nn(CC2CC2)/c(=N/C(=O)c2cc(C(F)(F)F)ccc2F)s1` the value was 47 to 49 °C; for `COc1ccncc1C(=O)/N=c1\sc(C(C)(C)C)nn1CC1CC1`, 94 to 95 °C; for `CCn1cccc/c1=N\C(=O)c1cccc(C(F)(F)F)c1F`, 93 to 95 °C.
Under `O=C(/N=c1\sccn1CC1CC1)c1cccc(C(F)(F)F)c1F` stands 96 to 97 °C.
Molecule `CCn1c(C)cs/c1=N\C(=O)c1cccc(C(F)(F)F)c1F` showed a melting point of 48 to 50 °C.
For the molecule `Cc1cn(C)/c(=N/C(=O)c2cccnc2)s1`, the melting point lay within 173 to 174 °C.
For `Cc1s/c(=N\C(=O)c2cccc(C(F)(F)F)c2)n(C)c1C` the value was 110 to 111 °C.
Take `CCCCn1cccc/c1=N\C(=O)c1cccc(C(F)(F)F)c1F`: the melting point is 51 to 52 °C.
The molecule `Cc1s/c(=N\C(=O)c2cc(Cl)ccc2Cl)n(CC2CC2)c1C` came in with a melting point of 113 to 115 °C.
For `Cc1s/c(=N\C(=O)c2ccc(Br)cc2F)n(CC2CC2)c1C` the value was 154 to 155 °C; for `CCC(CC)C(=O)/N=c1\sc(C)c(C)n1CC1CC1`, 67 to 69 °C.

The values above are taken from patent US20080312435A1, “Imine Compound” (TAISHO PHARMACEUTICAL CO., LTD., priority 2004, published 2008).
